Counter-ions that a name gives are not always drawn.
How the values were obtained:
[1] = biological target: T1, human recombinant ALK1 (GST fused to ALK1 intracellular domain [His142-Gln503]) (Homo sapiens, UniProt P37023); test: ALK1-Kinase Flashplate-Assay; type: biochemical; conditions: 0.5 μM ATP, biotinylated α-casein substrate; read-out: Assay 1 (ALK1-Kinase Flashplate-Assay IC50 class)
T1 construct: GST fused to ALK1 intracellular domain [His142-Gln503]; made in house
T1 sequence (P37023 142-503): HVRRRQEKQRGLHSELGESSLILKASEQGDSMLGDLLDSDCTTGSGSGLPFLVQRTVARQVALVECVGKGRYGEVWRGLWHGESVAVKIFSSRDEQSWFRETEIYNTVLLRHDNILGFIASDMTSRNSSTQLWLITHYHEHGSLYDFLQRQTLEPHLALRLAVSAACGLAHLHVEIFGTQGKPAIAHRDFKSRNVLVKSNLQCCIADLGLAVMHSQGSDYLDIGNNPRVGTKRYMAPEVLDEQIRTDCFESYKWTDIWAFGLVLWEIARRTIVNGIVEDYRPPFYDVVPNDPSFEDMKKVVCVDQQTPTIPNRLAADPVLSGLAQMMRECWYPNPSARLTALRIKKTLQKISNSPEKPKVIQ
Outline: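 Radiometric Flashplate assay at 20 °C: GST-ALK1 intracellular domain (5 ng/well) with 1 μM biotinylated bovine α-casein, 0.5 μM ATP plus [γ-33P]ATP in Tris pH 8.0, 1 mM MnCl2, 1% or 5% DMSO, 60 min. Normalised to no-inhibitor (0%) and 10 mM EDTA (100%); IC50 by 4-parameter fit.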

[2] = biological target: T2, ALK1 (wildtype full-length ALK1 receptor) (Homo sapiens, UniProt P37023); test: ALK1 transactivation assay (ID1-promoter luciferase reporter in transfected HepG2 cells); type: cell-based; conditions: ID1-luc reporter, 18 h, read-out: Assay 2 (ALK1 transactivation assay IC50 class)
T2 construct: expression vector for wildtype full-length ALK1 receptor; expressed in transfected cells; host or cells: HepG2 (ATCC HB-8065), transient transfection with ALK1wt in pcDNA3.1
From the text: Biological Assay 2: ALK1 Transactivation Assay
Herein HepG2 cell-cultures were transiently transfected by known techniques with an ALK1 plasmid (expression vector for wildtype full-length ALK1 receptor) and ID1 reporter plasmid containing 1.3 kB (−1370 to +86) of the ID1-promoter upstream of a luciferase reporter gene. ID1 is a known target gene of ALK1 and therefore gets transactivated by cotransfection with the ALK1 receptor. The specific transactivation is quantified via relative light units (RLU) which are detected in dependence of luciferase expression. Therefore a commercially available detection kit which contains the luciferase substrate luciferine was used.
HepG2 cells, ATCC HB-8065
96well plate polypropylene for compound dilution in DMSO
DMEM Ham's F12 (Biochrom #F4815) with 10% FCS after dialysis, 1% PenStrep and 200 mM Glutamine
steadyliteHTS (Perkin Elmer# 6016981)
Day 1: Seeding of Cells on 96-Well Plates
HepG2 cells are seeded on 96-well plates at a density of 7000 cells/ well in DMEM/HamsF12+5% FCS (+1% P/S, +1% Gln).
Day 2: Transfection of Cells
200 ng DNA: 100 ng ID1-luc (in pGL3basic, Promega)+5 ng ALK1wt (in pcDNA3.1)+95 ng pcDNA3.1 (empty vector, Invitogen)
Fugene and OptiMEM are incubated for 5 min at RT. This mixture is incubated with the DNA for 15 min at RT.
Afterwards, the plate is incubated under shaking conditions at room temperature (RT) for 1 h. After 4 hours at 37° C. the supernatants are drawn off by suction and the wells are replaced with medium (100 μl/well) containing low serum (0.2% FCS) and test substances.
Plates are incubated for further 18 h at 37° C.
100 μl luciferase substrate (steadyliteHTS, Packard) are added per well and plates are measured after 10 minutes in a luminometer (e.g. Viktor luminometer, Perkin Elmer). Luciferase activity is quantified by relative light units (RLU).
Calculation of IC50: ALK1wt−DMSO Control (without ALK1)=100% Substance(+ALK1wt)−DMSO control (without ALK1)=x % IC50=50% inhibition of ALK1 transactivation activity Biological data are presented below: Biological assay 1: ALK1-Kinase Flashplate-Assay

T2 sequence (P37023 22-503): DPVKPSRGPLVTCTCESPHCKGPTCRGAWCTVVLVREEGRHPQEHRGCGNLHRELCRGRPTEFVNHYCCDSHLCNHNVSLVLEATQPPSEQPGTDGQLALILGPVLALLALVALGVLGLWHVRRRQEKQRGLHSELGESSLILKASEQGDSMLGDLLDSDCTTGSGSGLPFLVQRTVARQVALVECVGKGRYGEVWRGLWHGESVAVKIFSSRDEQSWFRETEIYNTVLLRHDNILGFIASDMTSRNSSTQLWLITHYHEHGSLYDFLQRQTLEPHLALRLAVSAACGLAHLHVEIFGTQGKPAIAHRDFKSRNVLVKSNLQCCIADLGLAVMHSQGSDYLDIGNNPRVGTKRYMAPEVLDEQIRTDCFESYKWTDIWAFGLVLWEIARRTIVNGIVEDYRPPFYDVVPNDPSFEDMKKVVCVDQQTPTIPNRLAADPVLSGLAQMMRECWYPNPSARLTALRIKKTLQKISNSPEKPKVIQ

Structure (SMILES)	IC50 [1] [µM]	IC50 [2] [µM]
COc1cc(OC)cc(-c2cnn3ccc(Nc4ccc(N5CCOCC5)nc4)nc23)c1 [Example 30, [3-(3,5-Dimethoxy-phenyl)-pyrazolo[1,5-a]pyrimidin-5-yl]-(6-morpholin-4-yl-pyridin-3-yl)-amine]	< 1	< 10
COc1cc(OC)cc(-c2cnn3ccc(NC4CCN(C)CC4)nc23)c1 [Example 10, [3-(3,5-Dimethoxy-phenyl)-pyrazolo[1,5-a]pyrimidin-5-yl]-(1-methyl-piperidin-4-yl)-amine]	< 1	< 10
COc1cncc(-c2cnn3ccc(Nc4ccc(N5CCOCC5)cc4)nc23)c1 [Example 422, [3-(5-Methoxy-pyridin-3-yl)-pyrazolo[1,5-a]pyrimidin-5-yl]-(4-morpholin-4-yl-phenyl)-amine]	< 1	< 10
COc1ccc(-c2cnn3ccc(Nc4ccc(N5CCOCC5)cc4)nc23)cn1 [Example 20, [3-(6-Methoxy-pyridin-3-yl)-pyrazolo[1,5-a]pyrimidin-5-yl]-(4-morpholin-4-yl-phenyl)-amine]	< 1	< 10
FC(F)(F)c1cccc(-c2cnn3ccc(Nc4ccc(N5CCOCC5)nc4)nc23)c1 [Example 26, (6-Morpholin-4-yl-pyridin-3-yl)-[3-(3-trifluoromethyl-phenyl)-pyrazolo[1,5-a]pyrimidin-5-yl]-amine]	< 1	< 10
COc1cc(-c2cnn3ccc(Nc4ccccc4)nc23)cc(OC)c1OC [Example 2, phenyl-[3-(3,4,5-trimethoxy-phenyl)-pyrazolo[1,5-a]pyrimidin-5-yl]-amine]	< 1	< 10
COc1cc(-c2cnn3ccc(Nc4ccc(N5CCOCC5)cc4)nc23)cc(OC)c1OC [Example 421, (4-Morpholin-4-yl-phenyl)-[3-(3,4,5-trimethoxy-phenyl)-pyrazolo[1,5-a]pyrimidin-5-yl]-amine]	< 1	< 10

The next lines start with the values.

IC50 [1] [µM]	IC50 [2] [µM]	Structure (SMILES)
< 1	< 10	COc1cc(OC)cc(-c2cnn3ccc(Nc4ccc(N5CCOCC5)cc4)nc23)c1 [Example 127, [3-(3,5-Dimethoxy-phenyl)-pyrazolo[1,5-a]pyrimidin-5-yl]-(4-morpholin-4-yl-phenyl)-amine]
< 1	< 10	COc1ccc(-c2cnn3ccc(Nc4ccc(N5CCOCC5)cc4)nc23)cc1OC [Example 27, [3-(3,4-Dimethoxy-phenyl)-pyrazolo[1,5-a]pyrimidin-5-yl]-(4-morpholin-4-yl-phenyl)-amine]
< 1	< 10	COc1cc(-c2cnn3ccc(Nc4ccc(F)cc4)nc23)cc(OC)c1OC [Example 3, (4-fluoro-phenyl)-[3-(3,4,5-trimethoxy-phenyl)-pyrazolo[1,5-a]pyrimidin-5-yl]-amine]
< 1	< 10	CN1CCC(Nc2ccn3ncc(-c4cccc(C(F)(F)F)c4)c3n2)CC1 [Example 490, (1-methyl-piperidin-4-yl)-[3-(3-trifluoromethyl-phenyl)-pyrazolo[1,5-a]pyrimidin-5-yl]-amine]
< 1	< 10	CS(=O)(=O)c1cccc(-c2cnn3ccc(Nc4ccc(N5CCOCC5)cc4)nc23)c1 [Example 131, [3-(3-Methanesulfonyl-phenyl)-pyrazolo[1,5-a]pyrimidin-5-yl]-(4-morpholin-4-yl-phenyl)-amine]
< 1	< 10	CC(C)c1ccc(Nc2ccn3ncc(-c4cccc(C(N)=O)c4)c3n2)cc1 [Example 449, 3-[5-(4-Isopropyl-phenylamino)-pyrazolo[1,5-a]pyrimidin-3-yl]-benzamide]
< 1	< 10	COc1ccc(Nc2ccn3ncc(-c4ccc(OC)c(OC)c4)c3n2)cn1 [Example 465, [3-(3,4-Dimethoxy-phenyl)-pyrazolo[1,5-a]pyrimidin-5-yl]-(6-methoxy-pyridin-3-yl)-amine]
< 1	< 10	Cc1ccc(Nc2ccn3ncc(-c4cccc(O)c4)c3n2)cc1NS(C)(=O)=O [Example 427, N-{5-[3-(3-Hydroxy-phenyl)-pyrazolo[1,5-a]pyrimidin-5-ylamino]-2-methyl-phenyl}-methanesulfonamide]
< 1	< 10	c1csc(-c2cnn3ccc(NC4CCNCC4)nc23)c1 [Example 495, Piperidin-4-yl-(3-thiophen-2-yl-pyrazolo[1,5-a]pyrimidin-5-yl)-amine bis TFA salt]
